# Reference: the NIST ThermoML archive (doi:10.1016/j.jct.2009.05.009)
# Numbers after ± are expanded uncertainties.
# Test: xn = mol fraction of the nth substance listed
# Details: 101.3 kPa, Liquid, Vibrating tube method
smiles,measurement,setting,value
CCCCn1cc[n+](C)c1.F[B-](F)(F)F [1-butyl-3-methylimidazolium tetrafluoroborate] + O,mass density,"298.15 K, x2 = 0",1201.1 ± 2.3 kg/m3
same,mass density,"298.15 K, x2 = 0.0895",1198.3 ± 2.3 kg/m3
same,mass density,"298.15 K, x2 = 0.195",1194.4 ± 2.2 kg/m3
same,mass density,"298.15 K, x2 = 0.308",1189.3 ± 2.2 kg/m3
same,mass density,"298.15 K, x2 = 0.4996",1177.8 ± 2.2 kg/m3
same,mass density,"298.15 K, x2 = 0.75",1147.9 ± 2.7 kg/m3
same,mass density,"298.15 K, x2 = 0.899",1100.7 ± 3.7 kg/m3
same,mass density,"303.15 K, x2 = 0",1197.4 ± 2.3 kg/m3
same,mass density,"303.15 K, x2 = 0.0895",1194.6 ± 2.3 kg/m3
same,mass density,"303.15 K, x2 = 0.195",1190.9 ± 2.2 kg/m3
same,mass density,"303.15 K, x2 = 0.308",1185.8 ± 2.2 kg/m3
same,mass density,"303.15 K, x2 = 0.4996",1173.9 ± 2.3 kg/m3
same,mass density,"303.15 K, x2 = 0.75",1143.8 ± 2.7 kg/m3
same,mass density,"303.15 K, x2 = 0.899",1097.2 ± 3.7 kg/m3
same,mass density,"333.15 K, x2 = 0",1175.4 ± 2.3 kg/m3
same,mass density,"333.15 K, x2 = 0.0895",1172.8 ± 2.2 kg/m3
same,mass density,"333.15 K, x2 = 0.195",1169 ± 2.2 kg/m3
same,mass density,"333.15 K, x2 = 0.308",1163.9 ± 2.2 kg/m3
same,mass density,"333.15 K, x2 = 0.4996",1151.5 ± 2.3 kg/m3
same,mass density,"333.15 K, x2 = 0.75",1121 ± 2.7 kg/m3
same,mass density,"333.15 K, x2 = 0.899",1076.4 ± 3.6 kg/m3
CCCC[N+](C)(C)C.O=S(=O)([N-]S(=O)(=O)C(F)(F)F)C(F)(F)F [butyltrimethylammonium bis(trifluoromethylsulfonyl)imide] + O,mass density,"293.15 K, x2 = 0",1399.5 ± 2.6 kg/m3
same,mass density,"293.15 K, x2 = 0.0387",1398.4 ± 2.5 kg/m3
same,mass density,"293.15 K, x2 = 0.0765",1397 ± 2.5 kg/m3
same,mass density,"293.15 K, x2 = 0.1132",1395.3 ± 2.4 kg/m3
same,mass density,"293.15 K, x2 = 0.14",1394.1 ± 2.4 kg/m3
same,mass density,"293.15 K, x2 = 0.189",1392.4 ± 2.3 kg/m3
same,mass density,"293.15 K, x2 = 0.2108",1391.8 ± 2.3 kg/m3
same,mass density,"293.15 K, x2 = 0.2322",1391.2 ± 2.3 kg/m3
same,mass density,"298.15 K, x2 = 0",1395 ± 2.6 kg/m3
same,mass density,"298.15 K, x2 = 0.0387",1393.9 ± 2.5 kg/m3
same,mass density,"298.15 K, x2 = 0.0765",1392.5 ± 2.5 kg/m3
same,mass density,"298.15 K, x2 = 0.1132",1390.8 ± 2.4 kg/m3
same,mass density,"298.15 K, x2 = 0.14",1389.5 ± 2.4 kg/m3
same,mass density,"298.15 K, x2 = 0.189",1387.8 ± 2.3 kg/m3
same,mass density,"298.15 K, x2 = 0.2108",1387.2 ± 2.3 kg/m3
same,mass density,"298.15 K, x2 = 0.2322",1386.6 ± 2.3 kg/m3
same,mass density,"303.15 K, x2 = 0",1390.5 ± 2.6 kg/m3
same,mass density,"303.15 K, x2 = 0.0387",1389.4 ± 2.5 kg/m3
same,mass density,"303.15 K, x2 = 0.0765",1388 ± 2.5 kg/m3
same,mass density,"303.15 K, x2 = 0.1132",1386.3 ± 2.4 kg/m3
same,mass density,"303.15 K, x2 = 0.14",1385 ± 2.4 kg/m3
same,mass density,"303.15 K, x2 = 0.189",1383.2 ± 2.3 kg/m3
same,mass density,"303.15 K, x2 = 0.2108",1382.5 ± 2.3 kg/m3
same,mass density,"303.15 K, x2 = 0.2322",1381.8 ± 2.3 kg/m3
same,mass density,"308.15 K, x2 = 0",1386.1 ± 2.5 kg/m3
same,mass density,"308.15 K, x2 = 0.0387",1384.9 ± 2.5 kg/m3
same,mass density,"308.15 K, x2 = 0.0765",1383.5 ± 2.5 kg/m3
same,mass density,"308.15 K, x2 = 0.1132",1381.9 ± 2.4 kg/m3
same,mass density,"308.15 K, x2 = 0.14",1380.6 ± 2.4 kg/m3
same,mass density,"308.15 K, x2 = 0.189",1378.7 ± 2.3 kg/m3
same,mass density,"308.15 K, x2 = 0.2108",1377.8 ± 2.3 kg/m3
same,mass density,"308.15 K, x2 = 0.2322",1377.1 ± 2.3 kg/m3
same,mass density,"313.15 K, x2 = 0",1381.6 ± 2.5 kg/m3
same,mass density,"313.15 K, x2 = 0.0387",1380.5 ± 2.5 kg/m3
same,mass density,"313.15 K, x2 = 0.0765",1379 ± 2.5 kg/m3
same,mass density,"313.15 K, x2 = 0.1132",1377.4 ± 2.4 kg/m3
same,mass density,"313.15 K, x2 = 0.14",1376.1 ± 2.4 kg/m3
same,mass density,"313.15 K, x2 = 0.189",1374.1 ± 2.3 kg/m3
same,mass density,"313.15 K, x2 = 0.2108",1373.2 ± 2.3 kg/m3
same,mass density,"313.15 K, x2 = 0.2322",1372.4 ± 2.3 kg/m3
same,mass density,"318.15 K, x2 = 0",1377.1 ± 2.5 kg/m3
same,mass density,"318.15 K, x2 = 0.0387",1376 ± 2.5 kg/m3
same,mass density,"318.15 K, x2 = 0.0765",1374.6 ± 2.5 kg/m3
same,mass density,"318.15 K, x2 = 0.1132",1372.9 ± 2.4 kg/m3
same,mass density,"318.15 K, x2 = 0.14",1371.6 ± 2.4 kg/m3
same,mass density,"318.15 K, x2 = 0.189",1369.6 ± 2.3 kg/m3
same,mass density,"318.15 K, x2 = 0.2108",1368.7 ± 2.3 kg/m3
same,mass density,"318.15 K, x2 = 0.2322",1367.8 ± 2.3 kg/m3
same,mass density,"323.15 K, x2 = 0",1372.6 ± 2.5 kg/m3
same,mass density,"323.15 K, x2 = 0.0387",1371.5 ± 2.5 kg/m3
same,mass density,"323.15 K, x2 = 0.0765",1370 ± 2.5 kg/m3
same,mass density,"323.15 K, x2 = 0.1132",1368.4 ± 2.4 kg/m3
same,mass density,"323.15 K, x2 = 0.14",1367.1 ± 2.4 kg/m3
same,mass density,"323.15 K, x2 = 0.189",1365.1 ± 2.3 kg/m3
same,mass density,"323.15 K, x2 = 0.2108",1364.1 ± 2.3 kg/m3
same,mass density,"323.15 K, x2 = 0.2322",1363.2 ± 2.3 kg/m3
same,mass density,"328.15 K, x2 = 0",1368.2 ± 2.5 kg/m3
same,mass density,"328.15 K, x2 = 0.0387",1367 ± 2.5 kg/m3
same,mass density,"328.15 K, x2 = 0.0765",1365.5 ± 2.4 kg/m3
same,mass density,"328.15 K, x2 = 0.1132",1363.9 ± 2.4 kg/m3
same,mass density,"328.15 K, x2 = 0.14",1362.6 ± 2.4 kg/m3
same,mass density,"328.15 K, x2 = 0.189",1360.5 ± 2.3 kg/m3
same,mass density,"328.15 K, x2 = 0.2108",1359.5 ± 2.3 kg/m3
same,mass density,"328.15 K, x2 = 0.2322",1358.5 ± 2.3 kg/m3
same,mass density,"333.15 K, x2 = 0",1363.7 ± 2.5 kg/m3
same,mass density,"333.15 K, x2 = 0.0387",1362.4 ± 2.5 kg/m3
same,mass density,"333.15 K, x2 = 0.0765",1360.9 ± 2.4 kg/m3
same,mass density,"333.15 K, x2 = 0.1132",1359.3 ± 2.4 kg/m3
same,mass density,"333.15 K, x2 = 0.14",1358 ± 2.4 kg/m3
same,mass density,"333.15 K, x2 = 0.189",1355.8 ± 2.3 kg/m3
same,mass density,"333.15 K, x2 = 0.2108",1354.8 ± 2.3 kg/m3
same,mass density,"333.15 K, x2 = 0.2322",1353.7 ± 2.3 kg/m3
same,mass density,"338.15 K, x2 = 0",1359.2 ± 2.5 kg/m3
same,mass density,"338.15 K, x2 = 0.0387",1357.9 ± 2.5 kg/m3
same,mass density,"338.15 K, x2 = 0.0765",1356.3 ± 2.4 kg/m3
same,mass density,"338.15 K, x2 = 0.1132",1354.7 ± 2.4 kg/m3
same,mass density,"338.15 K, x2 = 0.14",1353.3 ± 2.4 kg/m3
same,mass density,"338.15 K, x2 = 0.189",1351.1 ± 2.3 kg/m3
same,mass density,"338.15 K, x2 = 0.2108",1350 ± 2.3 kg/m3
same,mass density,"338.15 K, x2 = 0.2322",1348.7 ± 2.3 kg/m3
same,mass density,"343.15 K, x2 = 0",1354.8 ± 2.5 kg/m3
same,mass density,"343.15 K, x2 = 0.0387",1353.4 ± 2.5 kg/m3
same,mass density,"343.15 K, x2 = 0.0765",1351.8 ± 2.4 kg/m3
same,mass density,"343.15 K, x2 = 0.1132",1350.2 ± 2.4 kg/m3
same,mass density,"343.15 K, x2 = 0.14",1348.7 ± 2.4 kg/m3
same,mass density,"343.15 K, x2 = 0.189",1346.4 ± 2.3 kg/m3
same,mass density,"343.15 K, x2 = 0.2108",1345.1 ± 2.3 kg/m3
same,mass density,"343.15 K, x2 = 0.2322",1343.8 ± 2.3 kg/m3
CCCC[N+]1(C)CCCC1.O=S(=O)([N-]S(=O)(=O)C(F)(F)F)C(F)(F)F + O,mass density,"298.21 K, x2 = 0",1395.3 ± 2.6 kg/m3
same,mass density,"298.21 K, x2 = 0.0435",1394 ± 2.5 kg/m3
same,mass density,"298.21 K, x2 = 0.0654",1393.2 ± 2.5 kg/m3
same,mass density,"298.21 K, x2 = 0.086",1392.3 ± 2.5 kg/m3
same,mass density,"298.21 K, x2 = 0.0913",1392.1 ± 2.5 kg/m3
same,mass density,"298.21 K, x2 = 0.1262",1390.7 ± 2.4 kg/m3
same,mass density,"298.21 K, x2 = 0.1396",1390.1 ± 2.4 kg/m3
same,mass density,"298.21 K, x2 = 0.1909",1388.1 ± 2.3 kg/m3
same,mass density,"298.21 K, x2 = 0.2228",1387.1 ± 2.3 kg/m3
same,mass density,"323.21 K, x2 = 0",1373.6 ± 2.5 kg/m3
same,mass density,"323.21 K, x2 = 0.0298",1372.5 ± 2.5 kg/m3
same,mass density,"323.21 K, x2 = 0.0673",1371.1 ± 2.5 kg/m3
same,mass density,"323.21 K, x2 = 0.1012",1369.9 ± 2.4 kg/m3
same,mass density,"323.21 K, x2 = 0.1406",1368.3 ± 2.4 kg/m3
same,mass density,"323.21 K, x2 = 0.2033",1365.3 ± 2.3 kg/m3
CCn1cc[n+](C)c1.O=S(=O)([N-]S(=O)(=O)C(F)(F)F)C(F)(F)F + O,mass density,"298.19 K, x2 = 0",1519.3 ± 2.8 kg/m3
same,mass density,"298.19 K, x2 = 0.0209",1518.3 ± 2.8 kg/m3
same,mass density,"298.19 K, x2 = 0.0499",1516.9 ± 2.7 kg/m3
same,mass density,"298.19 K, x2 = 0.0631",1516.2 ± 2.7 kg/m3
same,mass density,"298.19 K, x2 = 0.1205",1513 ± 2.6 kg/m3
same,mass density,"298.19 K, x2 = 0.1608",1510.7 ± 2.5 kg/m3
same,mass density,"298.19 K, x2 = 0.2032",1508.1 ± 2.5 kg/m3
same,mass density,"298.19 K, x2 = 0.3025",1501.3 ± 2.3 kg/m3
same,mass density,"323.17 K, x2 = 0",1494.7 ± 2.7 kg/m3
same,mass density,"323.17 K, x2 = 0.0353",1493.1 ± 2.7 kg/m3
same,mass density,"323.17 K, x2 = 0.0581",1492 ± 2.7 kg/m3
same,mass density,"323.17 K, x2 = 0.0834",1490.6 ± 2.6 kg/m3
same,mass density,"323.17 K, x2 = 0.1164",1488.7 ± 2.6 kg/m3
same,mass density,"323.17 K, x2 = 0.1611",1486.2 ± 2.5 kg/m3
same,mass density,"323.17 K, x2 = 0.2221",1482.4 ± 2.4 kg/m3
